Data reported in patent US10449547B2, “Preparation of a powdery pharmaceutical composition by means of cryo-milling” (GRÜNENTHAL GMBH, priority 2013, dated 2019).

Test: Relative alpha-tocopherol content within blend before and after cryo-milling
Type: physicochemical
Source text: Relative Alpha-Tocopherol Content within Blend Before and after Cryo-Milling: […]

Structure (SMILES): Cc1c(C)c2c(c(C)c1O)CC[C@@](C)(CCC[C@H](C)CCC[C@H](C)CCCC(C)C)O2 [alpha-tocopherol]
- degradation of alpha-tocopherol with cryo-milling process: did not degrade
